Test results taken from PMC11876671, “Investigating blood–brain barrier penetration and neurotoxicity of natural products for central nervous system drug development” (Scientific Reports, 2025).
Counter-ions that a name gives are not always drawn. Like-named read-outs stand apart in the source and are kept apart here.

What was measured:
[1] = test system: GFP-labeled iPSC-derived human cortical glutamatergic neurons; assay: cells; details: Neuron, 48 h
[2] = test system: GFP-labeled iPSC-derived human cortical glutamatergic neurons; assay: cells; format: cell-based; details: Homo sapiens, Neuron
in vitro = details: PAMPA, PAMPA-BBB Pe
[3] = read-out: Viability AC50 (48hr)
[4] = Table S2: compounds exhibiting moderate to high PAMPA-BBB permeability
[5] = Table S1, total neurite length, 48 hr, head prints no unit, µM per Table 1 and Fig. 5, read-out: TNL AC50 (48 hr)
[6] = Table S1, 60 min, room temperature, 0.05 mM
[7] = read-out: Viability AC50 (48 h)
[8] = Table 1, 60 min, room temperature, 0.05 mM
[9] = total neurite length, 48 h treatment, read-out: TNL AC50 (48 h)

| SMILES | AC50 [1, 3] [µM] | PAMPA-BBB Pe [4] | AC50 [2, 5] [µM] | Papp (in vitro; [6]) [×10⁻⁶ cm/s] | also measured |
| --- | --- | --- | --- | --- | --- |
| COc1ccc(/C=C/C(=O)c2ccc(O)cc2O)cc1 [2',4'-DIHYDROXY-4-METHOXYCHALCONE] | 21.5 | 357 10^-6 cm/sec | 37.2 | 357 | – |
| O=c1cc(-c2ccc(O)c(O)c2)oc2ccccc12 [3',4'-DIHYDROXYFLAVONE] | 19.8 | 94 10^-6 cm/sec | 15.7 | 93.9 | – |
| O=c1c(O)c(-c2ccccc2)oc2ccccc12 [3-Hydroxyflavone] | – | – | – | 181 | AC50 [1, 7]: 1.83 µM; PAMPA-BBB Pe [8]: 181.17 10 × 10^− 6 cm/sec; AC50 [2, 9]: 2.97 µM |
| COc1ccc(C(=O)/C=C/c2ccccc2)cc1 [4'-METHOXYCHALCONE] | 23.6 | >1000 10^-6 cm/sec | 23.6 | – | PAMPA-BBB Pe [6]: >1000 10^-6 cm/sec |
| CN[C@@H]1C[C@H]2O[C@@](C)([C@@H]1OC)n1c3ccccc3c3c4c(c5c6ccccc6n2c5c31)C(=O)N[C@H]4O [7-hydroxystaurosporine (UCN-01), 7-hydroxystaurosporine] | 7.92 | 158 10^-6 cm/sec | 5.74 | 158 | – |
| COc1cc([C@@H]2c3cc4c(cc3C[C@H]3COC(=O)[C@@H]32)OCO4)cc(OC)c1O [(5R,5aR,8aR)-5-(4-hydroxy-3,5-dimethoxyphenyl)-5,8,8a,9-tetrahydrofuro[3',4':6,7]naphtho[2,3-d][1,3]dioxol-6(5aH)-one] | 0.656 | – | 0.585 | 11.2 | Papp (in vitro; [4]): 11 ×10⁻⁶ cm/s |
| COc1cc(C2c3cc4c(c(O)c3CC3COC(=O)C32)OCO4)cc(OC)c1O (stereo not drawn) [Alpha-Peltatin] | 0.002 | – | 0.003 | 14.2 | – |
| CCC(=O)CCCCC[C@@H]1NC(=O)[C@H]2CCCCN2C(=O)[C@H]([C@@H](C)CC)NC(=O)[C@H](Cc2cn(OC)c3ccccc23)NC1=O [Apicidin] | 2.17 | 56 10^-6 cm/sec | 4.84 | 55.8 | AC50 [1, 7]: 2.17 µM; PAMPA-BBB Pe [8]: 55.75 10 × 10^− 6 cm/sec; AC50 [2, 9]: 4.84 µM |
| O=c1cc(-c2ccc(O)cc2)oc2cc(O)cc(O)c12 [Apigenin] | 37.2 | 36 10^-6 cm/sec | 35.9 | 36.2 | – |
| CC[C@H](C)[C@H]1O[C@]2(C=C[C@@H]1C)C[C@@H]1C[C@@H](C/C=C(\C)[C@@H](O[C@H]3C[C@H](OC)[C@@H](O[C@H]4C[C@H](OC)[C@@H](O)[C@H](C)O4)[C@H](C)O3)[C@@H](C)/C=C/C=C3\CO[C@@H]4[C@H](O)C(C)=C[C@@H](C(=O)O1)[C@]34O)O2 [Avermectin B1A] | 17.2 | – | 25.9 | 35 | – |
| O=C1NC(=O)C(c2c[nH]c3ccccc23)=C1c1c[nH]c2ccccc12 [Bisindolylmaleimide IV] | 13.9 | – | 10.6 | > 654 | – |
| O=C(/C=C/c1ccc(O)c(O)c1)OCCc1ccccc1 [Caffeic acid phenethyl ester] | 24.8 | – | 22.2 | – | PAMPA-BBB Pe [6]: >1000 10^-6 cm/sec |
| CCCCCc1cc(O)c2c(c1)OC(C)(C)c1ccc(C)cc1-2 [Cannabinol] | 35.2 | – | 28.2 | 20.6 | Papp (in vitro; [4]): 21 ×10⁻⁶ cm/s |
| CC(C)c1cc2c(c(O)c1O)[C@@]13CCCC(C)(C)[C@@H]1C[C@@H]2OC3=O [Carnosol] | 26.4 | 33 10^-6 cm/sec | 17.8 | 32.8 | – |
| CC1=C(O)C(=O)C=C2C1=CC=C1[C@@]2(C)CC[C@@]2(C)[C@@H]3C[C@](C)(C(=O)O)CC[C@]3(C)CC[C@]12C [Celastrol] | 5.47 | – | 4.92 | 143 | AC50 [1, 7]: 5.47 µM; PAMPA-BBB Pe [8]: 142.58 10 × 10^− 6 cm/sec; AC50 [2, 9]: 4.92 µM; Papp (in vitro; [4]): 143 ×10⁻⁶ cm/s |
| COc1ccc2c(c[n+](C)c3c4cc5c(cc4ccc23)OCO5)c1OC [Chelerythrine chloride] | 2.19 | – | 2.79 | 94.7 | AC50 [1, 7]: 2.19 µM; PAMPA-BBB Pe [8]: 94.67 10 × 10^− 6 cm/sec; AC50 [2, 9]: 2.79 µM |
| CN1Cc2c(ccc3c2OCO3)[C@@H]2[C@H]1c1cc3c(cc1C[C@@H]2O)OCO3 [Chelidonine] | 5.8 | 75 10^-6 cm/sec | 7.54 | 75 | – |
| COc1ccc(/C=C\c2cc(OC)c(OC)c(OC)c2)cc1O [Combretastatin A4] | 0.047 | 316 10^-6 cm/sec | 0.0277 | 316 | AC50 [1, 7]: 0.047 µM; PAMPA-BBB Pe [8]: 315.59 10 × 10^− 6 cm/sec; AC50 [2, 9]: 0.028 µM |
| COc1cc(C)ccc1O [Creosol] | 10.5 | – | – | – | PAMPA-BBB Pe (PAMPA): 115 10^-6 cm/sec; AC50 ([2]; 48 h, read-out: TNL AC50 (48 hr)): 15.3 µM; Papp (in vitro): 115 ×10⁻⁶ cm/s |
| C[C@H]1COC2=C1C(=O)C(=O)c1c2ccc2c1CCCC2(C)C [Cryptotanshinone] | 19.8 | – | 21.1 | 12 | – |

| SMILES | AC50 [1, 3] [µM] | PAMPA-BBB Pe [4] | AC50 [2, 5] [µM] | Papp (in vitro; [6]) [×10⁻⁶ cm/s] | also measured |
| --- | --- | --- | --- | --- | --- |
| COC(=O)[C@H]1[C@H]2C[C@@H]3c4[nH]c5ccccc5c4CCN3C[C@H]2C[C@@H](OC(=O)c2cc(OC)c(OC)c(OC)c2)[C@@H]1OC [Deserpidine, reference compound] | 16.6 | 42 10^-6 cm/sec | 11.3 | 42.1 | – |
| Cc1c2ccncc2c(C)c2c1[nH]c1ccccc12 [Ellipticine] | 19.6 | >1000 10^-6 cm/sec | – | – | AC50 [1, 7]: 19.6 µM; PAMPA-BBB Pe [8]: > 1000 10 × 10^− 6 cm/sec; PAMPA-BBB Pe [6]: >1000 10^-6 cm/sec; AC50 [2, 9]: 2.64 µM |
| Cc1cc2c(C(C)C)c(O)c(O)c(C=O)c2c(O)c1-c1c(C)cc2c(C(C)C)c(O)c(O)c(C=O)c2c1O [Gossypol] | 6.91 | 393 10^-6 cm/sec | 7.6 | 393 | – |
| Cc1nccc2c1[nH]c1ccccc12 [Harmane] | – | – | 3.21 | – | AC50 [1, 7]: 12.2 µM; PAMPA-BBB Pe (PAMPA): 59.65 10 × 10^− 6 cm/sec; AC50 [2, 9]: 3.21 µM; Papp (in vitro): 59.6 ×10⁻⁶ cm/s |
| COc1ccc2c(c1OC)C(=O)O[C@@H]2[C@H]1c2cc3c(cc2CCN1C)OCO3 [Hydrastine] | 22.8 | 57 10^-6 cm/sec | 26.1 | 57.4 | – |
| CN1[C@@H](CC(=O)c2ccccc2)CCC[C@H]1C[C@H](O)c1ccccc1 [Lobeline hydrochloride] | 22.5 | – | 9.96 | 31.8 | Papp (in vitro; [4]): 32 ×10⁻⁶ cm/s |
| CC1=C[C@H](O)CC(C)(C)[C@H]1/C=C/C(C)=C/C=C/C(C)=C/C=C/C=C(C)/C=C/C=C(C)/C=C/C1=C(C)C[C@@H](O)CC1(C)C [Lutein] | 21.1 | – | 24.2 | 28 | – |
| CCCC[C@@H](C)/C=C(C)/C=C(\C)C(=O)NC1=C[C@@](O)(/C=C/C=C/C=C/C(=O)NC2=C(O)CCC2=O)[C@@H]2O[C@@H]2C1=O [ManumycinA] | 8.33 | – | 6.43 | 64 | – |
| C=C(C)[C@@]12OC3(c4ccccc4)O[C@@H]1[C@@H]1[C@@H]4O[C@]4(CO)[C@@H](O)[C@]4(O)C(=O)C(C)=C[C@H]4[C@@]1(O3)[C@H](C)[C@H]2OC(=O)/C=C/C=C/c1ccccc1 [Mezerein] | 9.41 | – | 16.3 | 15.6 | Papp (in vitro; [4]): 16 ×10⁻⁶ cm/s |
| COc1cc2c(O)c3c(c(-c4ccc5c(c4)OCO5)c2cc1OC)C(=O)OC3 [NCGC00077816-01] | 6.51 | – | 11 | 187 | – |
| C=CC(C1=CC(=O)C(OC)=CC1=O)c1ccc(OC)cc1 (stereo not drawn) [NCGC00095719-04] | 1.33 | – | 1.26 | 143 | Papp (in vitro; [4]): 143 ×10⁻⁶ cm/s |
| COc1ccc(/C=C/C(=O)c2cc(O)ccc2O)cc1 [NCGC00096016-04] | 19.8 | 300 10^-6 cm/sec | 12.9 | 300 | – |
| C=C[C@@H](C1=CC(=O)C(OC)=C(OC)C1=O)c1ccccc1 [NCGC00160161-01] | 6.54 | – | 1.07 | 69.8 | Papp (in vitro; [4]): 70 ×10⁻⁶ cm/s |
| CC=C1CN2CC[C@]34C(=C(C=O)[C@@H]1C[C@H]23)Nc1c(O)cccc14 [NCGC00160220-01] | – | 18 10^-6 cm/sec | 0.157 | 18.2 | – |
| COc1cc2c(OC(C)=O)c3c(c(-c4ccc5c(c4)OCO5)c2cc1OC)C(=O)OC3 [NCGC00161918-01] | 9.92 | 349 10^-6 cm/sec | 3.1 | 349 | – |
| CC[C@@]1(O)C[C@H](O[C@H]2C[C@H](N(C)C)[C@H](O)[C@H](C)O2)c2c(cc3c(c2O)C(=O)c2c(O)ccc(O)c2C3=O)[C@H]1C(=O)OC [NCGC00178933-02] | 0.81 | – | 0.475 | 31.9 | Papp (in vitro; [4]): 32 ×10⁻⁶ cm/s |
| CC(=O)O[C@@H]1C[C@@]2(C)[C@H](c3ccoc3)C[C@H]3O[C@]32[C@]2(C)C(=O)C(O)=C3C(C)(C)C(=O)C=C[C@]3(C)C12 (stereo partly drawn) [NCGC00179158-03] | 2.35 | – | 2.77 | 17.6 | Papp (in vitro; [4]): 18 ×10⁻⁶ cm/s |
| COc1ccc(CC(=O)c2ccc(O)cc2O)cc1 [ONONETIN] | – | 172 10^-6 cm/sec | 24.5 | 172 | – |
| Oc1ccc(C2=Cc3ccc(O)cc3OC2)cc1 [Phenoxodiol] | 4.33 | – | 8.86 | 145 | – |
| O=C1C=C2C=C[C@@H]3C[C@@]2(O1)[C@H]1CCCCN31 [Securinine] | – | 22 10^-6 cm/sec | 16.2 | 22 | – |
